The structures appear in SMILES notation. Where two headings read alike, the source gives them in different places.

For test [1], the system named is HAP1 MTAP-deleted cell line. Kind of test: SDMA in-cell western assay, HAP1 MTAP-deleted. Format: cell-based. The note with it: for IC50: Homo sapiens; for MTAP intact/deleted ratio: IC50 ratio HAP1 MTAP-intact vs HAP1 MTAP-deleted, SDMA in-cell western. The procedure, abridged:
(§1)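 Compounds were tested in HAP1 cells differing only in MTAP status (endogenous expression versus null). Cellular SDMA levels were then measured by in-cell western, giving an IC50 in each background.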

For test [2], the target named is T1, PRMT5 (Homo sapiens, UniProt O14744).
T1 construct: purchased Viva (custom protein)
T1 sequence (O14744 whole entry): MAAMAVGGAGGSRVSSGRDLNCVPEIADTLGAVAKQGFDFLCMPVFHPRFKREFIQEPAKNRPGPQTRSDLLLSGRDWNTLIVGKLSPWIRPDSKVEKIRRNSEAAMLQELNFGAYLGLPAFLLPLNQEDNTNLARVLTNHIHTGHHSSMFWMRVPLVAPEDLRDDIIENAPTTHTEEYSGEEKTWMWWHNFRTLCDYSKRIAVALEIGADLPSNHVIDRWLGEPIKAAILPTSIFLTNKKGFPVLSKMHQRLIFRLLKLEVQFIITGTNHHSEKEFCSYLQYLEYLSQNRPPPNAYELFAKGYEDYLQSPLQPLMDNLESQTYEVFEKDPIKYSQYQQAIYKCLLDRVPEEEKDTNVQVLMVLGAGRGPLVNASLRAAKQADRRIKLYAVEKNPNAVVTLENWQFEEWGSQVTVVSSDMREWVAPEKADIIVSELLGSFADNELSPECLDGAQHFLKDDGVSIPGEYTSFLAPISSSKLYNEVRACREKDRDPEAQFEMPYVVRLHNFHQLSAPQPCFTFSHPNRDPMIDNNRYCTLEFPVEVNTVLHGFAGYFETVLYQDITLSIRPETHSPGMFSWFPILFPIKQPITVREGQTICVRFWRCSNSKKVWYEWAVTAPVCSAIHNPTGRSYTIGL
T1 sequence (Q9BQA1 whole entry partner): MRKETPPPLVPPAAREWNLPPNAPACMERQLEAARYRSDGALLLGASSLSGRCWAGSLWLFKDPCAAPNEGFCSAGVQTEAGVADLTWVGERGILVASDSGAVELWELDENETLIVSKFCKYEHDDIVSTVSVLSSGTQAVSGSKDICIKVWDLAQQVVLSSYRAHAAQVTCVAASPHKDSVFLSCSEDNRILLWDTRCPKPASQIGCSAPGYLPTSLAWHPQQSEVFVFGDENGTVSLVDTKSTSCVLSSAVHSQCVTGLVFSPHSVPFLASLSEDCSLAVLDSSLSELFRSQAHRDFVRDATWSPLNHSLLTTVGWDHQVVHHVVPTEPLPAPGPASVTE
Briefly: PRMT5 biochemical IC50 assay with SAM as cofactor. The note with it: PRMT5, SAM as cofactor; read-out: SAM IC50.

The test system of test [3] is HAP1 MTAP-deleted cell line. Briefly: Viability assay, MTAP-deleted cell line. It counts as cell-based. The settings on record: Homo sapiens. The text has this:
Table 1 additionally indicates IC50 values in a viability assay for the MTAP-deleted cell line (column 10), indicating the effect of treatment with compound on cell survival.

Test [4] deals with HAP1 MTAP-intact cell line. Kind of test: SDMA in-cell western assay, HAP1 MTAP-intact. Format: cell-based. The note with it: Homo sapiens. The procedure, abridged:
as §1

The target of test [5] is T1, PRMT5. Briefly: PRMT5 biochemical IC50 assay with MTA as cofactor. The note with it: PRMT5, MTA as cofactor; read-out: MTA IC50.
Test [6] addresses T1, PRMT5. Kind of test: PRMT5 biochemical IC50 assay with no cofactor. The settings on record: PRMT5, no cofactor; read-out: No Cofactor/rel IC50. The text has this: Table 1 indicates IC50 values (μM) against PRMT5 for exemplary compounds in the presence of SAM as cofactor, with no cofactor, and with MTA as cofactor, respectively (columns 4-6). […] Ki values can be calculated from the IC50 values as described in the Examples section. As detailed in the Examples section, for the assay performed in the presence of SAM, IC50=Ki×1.5 (Ki=IC50/1.5).

The mark [7] stands for this setting: HAP1, SDMA in-cell western, HAP1 MTAP-deleted, read-out: HAP1 MTAP deleted IC50.
Where [8] appears, read: HAP1, viability assay, MTAP-deleted cell line, read-out: HAP1 MTAP deleted viability.
Where [9] appears, read: HAP1, SDMA in-cell western, HAP1 MTAP-intact, read-out: MTAP HAP1 intact IC50.

Regarding `Cc1cc(NC(=O)C(=O)N2C[C@@H](C)CC[C@@H]2c2ccc3sc([C@@H]4CCN(C)C(C)(C)C4)nc3c2)cnc1C` [Compound 1215, N-(5,6-dimethyl-3-pyridyl)-2-oxo-2-[(2R,5S)-5-methyl-2-[2-[(4R)-1,2,2-trimethyl-4-piperidyl]-1,3-benzothiazol-5-yl]-1-piperidyl]acetamide], the IC50 in test [1] (setting [7]) is below 100 nM; at PRMT5 [2], below 50 nM; in test [3] (setting [8]) it was below 1000 nM; in test [4] (setting [9]), 100 to 1000 nM; at PRMT5 [5], below 50 nM; on PRMT5 [6], below 50 nM. In addition, in test [1], the MTAP intact/deleted ratio result is recorded as “A (an IC50 ratio greater than or equal to 10 fold)”.
`CCc1cc(NC(=O)C(=O)N2C[C@@H](C)CC[C@@H]2c2ccc3sc(C45CCC(CC4)N(C)C5)nc3c2)cnc1N` [Compound 1217]: the IC50 is below 100 nM in test [1] (setting [7]); below 50 nM at PRMT5 [2]; below 1000 nM in test [3] (setting [8]); below 100 nM in test [4] (setting [9]); below 50 nM at PRMT5 [5]; below 50 nM at PRMT5 [6]. Also, in test [1], the MTAP intact/deleted ratio result is given as “B (an IC50 ratio greater than or equal to 3 fold but lower than 10 fold)”.
With `COc1ncc(NC(=O)C(=O)N2C[C@@H](C)CC[C@@H]2c2ccc3sc(C4CCN(C5CC5)CC4)nc3c2)cc1C(N)=O` [Compound 1219, 5-(2-((2R,5S)-2-(2-(1-cyclopropylpiperidin-4-yl)benzo[d]thiazol-5-yl)-5-methylpiperidin-1-yl)-2-oxoacetamido)-2-methoxynicotinamide], the IC50 in test [1] (setting [7]) was below 100 nM; at PRMT5 [2], 50 to 500 nM; in test [3] (setting [8]), below 1000 nM; in test [4] (setting [9]) it was below 100 nM; on PRMT5 [5] it was below 50 nM; at PRMT5 [6] it was below 50 nM. Moreover, the MTAP intact/deleted ratio entry in test [1] is “A (an IC50 ratio greater than or equal to 10 fold)”.
Consider `Cc1cc(NC(=O)C(=O)N2C[C@@H](C)CC[C@@H]2c2ccc3sc(C4CCN(C)CC4)cc3c2)cnc1N` [Compound 1220, N-(6-amino-5-methyl-3-pyridyl)-2-[(2R,5S)-5-methyl-2-[2-(1-methyl-4-piperidyl)benzothiophen-5-yl]-1-piperidyl]-2-oxo-acetamide], for which the IC50 in test [1] (setting [7]) was below 100 nM; on PRMT5 [2], below 50 nM; in test [3] (setting [8]), below 1000 nM; in test [4] (setting [9]), below 100 nM; at PRMT5 [5] it was below 50 nM; on PRMT5 [6] it was below 50 nM. For the same molecule, in test [1], the MTAP intact/deleted ratio entry was “B (an IC50 ratio greater than or equal to 3 fold but lower than 10 fold)”.
As for `CCc1cc(NC(=O)C(=O)N2C[C@@H](C)CC[C@@H]2c2ccc3sc(C4CCN(C5COC5)CC4)nc3c2)cnc1N` [Compound 1224, N-(6-amino-5-ethylpyridin-3-yl)-2-((2R,53)-5-methyl-2-(2-(1-(oxetan-3-yl)piperidin-4-yl)benzo[d]thiazol-5-yl)piperidin-1-yl)-2-oxoacetamide], the IC50 was below 100 nM in test [1] (setting [7]); 50 to 500 nM at PRMT5 [2]; below 1000 nM in test [3] (setting [8]); below 100 nM in test [4] (setting [9]); below 50 nM at PRMT5 [5]; below 50 nM at PRMT5 [6]. Besides, in test [1], the MTAP intact/deleted ratio result is “A (an IC50 ratio greater than or equal to 10 fold)”.
As for `Cc1cc(NC(=O)C(=O)N2C[C@@H](C)CC[C@@H]2c2ccc(N(C)C3CCN(C)CC3)nc2)cnc1N` [Compound 1225, N-(6-Amino-5-methyl-3-pyridyl)-2-[(2R,5S)-5-methyl-2-[6-[methyl-(1-methyl-4-piperidyl)amino]-3-pyridyl]-1-piperidyl]-2-oxo-acetamide], the IC50 in test [1] (HAP1, read-out: HAP1 MTAP deleted IC50) is below 100 nM; at PRMT5 [2] it was below 50 nM; in test [3] (HAP1, read-out: HAP1 MTAP deleted viability), below 1000 nM; in test [4] (HAP1, read-out: MTAP HAP1 intact IC50) it was 100 to 1000 nM; at PRMT5 [5], below 50 nM; at PRMT5 [6] it was below 50 nM. In addition, the MTAP intact/deleted ratio entry in test [1] is “A (an IC50 ratio greater than or equal to 10 fold)”.
As to `CCc1cc(NC(=O)C(=O)N2C[C@@H](C)CC[C@@H]2c2cccc(CCN(C)C)c2)cnc1N` [Compound 1226, N-(6-amino-5-ethylpyridin-3-yl)-2-((2R,5S)-2-(3-(2-(dimethylamino)ethyl)phenyl)-5-methylpiperidin-1-yl)-2-oxoacetamide], the IC50 in test [1] (setting [7]) is below 100 nM; on PRMT5 [2], 50 to 500 nM; in test [3] (setting [8]), below 1000 nM; in test [4] (setting [9]) it was 100 to 1000 nM; at PRMT5 [5] it was below 50 nM; at PRMT5 [6], below 50 nM. Further, the MTAP intact/deleted ratio entry in test [1] is reported as “A (an IC50 ratio greater than or equal to 10 fold)”.
Turning to `CCc1cc(NC(=O)C(=O)N2C[C@@H](C)CC[C@@H]2c2ccc(CCN(C)C)cc2)cnc1N` [Compound 1228, N-(6-amino-5-ethylpyridin-3-yl)-2-((2R,5S)-2-(4-(2-(dimethylamino)ethyl)phenyl)-5-methylpiperidin-1-yl)-2-oxoacetamide], the IC50 was below 100 nM in test [1] (setting [7]); 50 to 500 nM at PRMT5 [2]; below 1000 nM in test [3] (setting [8]); 100 to 1000 nM in test [4] (setting [9]); below 50 nM at PRMT5 [5]; below 50 nM on PRMT5 [6]. The MTAP intact/deleted ratio entry in test [1] is given as “A (an IC50 ratio greater than or equal to 10 fold)”.
Turning to `CCc1cc(NC(=O)C(=O)N2C[C@@H](C)CC[C@@H]2c2ccc(N3CCC(CN(C)CC)CC3)cc2)cnc1N` [Compound 1232, N-(6-Amino-5-ethylpyridin-3-yl)-2-[(2R,5S)-2-[4-(4-{[ethyl(methyl)amino]methyl}piperidin-1-yl)phenyl]-5-methylpiperidin-1-yl]-2-oxoacetamide], the IC50 is below 100 nM in test [1] (setting [7]); 50 to 500 nM on PRMT5 [2]; below 1000 nM in test [3] (setting [8]); 100 to 1000 nM in test [4] (setting [9]); below 50 nM on PRMT5 [5]; below 50 nM at PRMT5 [6]. The MTAP intact/deleted ratio entry in test [1] was “A (an IC50 ratio greater than or equal to 10 fold)”.
As to `COc1ncc(NC(=O)C(=O)N2C[C@@H](C)CC[C@@H]2c2ccc3sc(C4CC5(C4)CN(C)C5)nc3c2)cc1C(N)=O` [Compound 1236, 2-methoxy-5-(2-((2R,5S)-5-methyl-2-(2-(2-methyl-2-azaspiro[3.3]heptan-6-yl)benzo[d]thiazol-5-yl)piperidin-1-yl)-2-oxoacetamido)nicotinamide], the IC50 in test [1] (setting [7]) is below 100 nM; on PRMT5 [2], below 50 nM; in test [3] (setting [8]), below 1000 nM; in test [4] (setting [9]), below 100 nM; at PRMT5 [5] it was below 50 nM; at PRMT5 [6], below 50 nM. Besides, the MTAP intact/deleted ratio entry in test [1] was “A (an IC50 ratio greater than or equal to 10 fold)”.
For the molecule `CCc1cc(NC(=O)C(=O)N2C[C@@H](C)CC[C@@H]2c2ccc3sc(C(C)(C)N(C)C)nc3c2)cnc1N` [Compound 1237, N-(6-amino-5-ethylpyridin-3-yl)-2-((2R,5S)-2-(2-(2-(dimethylamino)propan-2-yl)benzo[d]thiazol-5-yl)-5-methylpiperidin-1-yl)-2-oxoacetamide], the IC50 in test [1] (setting [7]) was below 100 nM; on PRMT5 [2], 50 to 500 nM; in test [3] (setting [8]), below 1000 nM; in test [4] (setting [9]), below 100 nM; on PRMT5 [5], below 50 nM; at PRMT5 [6], below 50 nM. In addition, in test [1], the MTAP intact/deleted ratio result was “A (an IC50 ratio greater than or equal to 10 fold)”.

The values above are taken from US11999727B2 (Tango Therapeutics, Inc., priority 2020, dated 2024).
